Measured values taken from US9629861B2, “Compositions and methods for treating bacterial infections using ceftaroline” (Forest Laboratories Holdings Limited, priority 2009, dated 2017).
Where two headings read alike, the source gives them in different places.

Columns and labels:
[1] = Aqueous solubility; format: physicochemical; details: with L-arginine, depending on the molarity of the solution
From the text: In further embodiments, the compositions may comprise L-arginine.

[2] = Pharmacokinetics of ceftaroline after IV infusion of ceftaroline fosamil in adults with normal renal function; design: species or system human; details: in vivo
From the text: The standard deviation is shown in brackets.

[3] = target: T1, CYP1A1 (Homo sapiens, UniProt P04798); assay: CYP inhibition in human liver microsomes; format: in vitro ADME
T1 construct: In vitro studies in human liver microsomes; from tissue; host or cells: human liver microsomes
T1 sequence (P04798 whole entry): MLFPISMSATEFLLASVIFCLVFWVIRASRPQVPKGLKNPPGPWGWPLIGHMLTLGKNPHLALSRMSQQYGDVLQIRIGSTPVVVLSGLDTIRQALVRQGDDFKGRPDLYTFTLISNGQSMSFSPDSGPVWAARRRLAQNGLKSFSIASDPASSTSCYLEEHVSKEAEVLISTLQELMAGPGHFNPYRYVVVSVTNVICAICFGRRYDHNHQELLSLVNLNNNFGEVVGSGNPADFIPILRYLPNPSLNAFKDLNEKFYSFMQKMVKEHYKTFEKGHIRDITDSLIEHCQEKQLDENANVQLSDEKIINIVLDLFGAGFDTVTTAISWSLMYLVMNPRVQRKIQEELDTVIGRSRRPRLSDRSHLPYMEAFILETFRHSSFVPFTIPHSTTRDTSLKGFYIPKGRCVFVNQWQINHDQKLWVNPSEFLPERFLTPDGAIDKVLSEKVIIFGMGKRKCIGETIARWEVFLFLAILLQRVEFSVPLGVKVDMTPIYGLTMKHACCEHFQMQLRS

[4] = target: CYP1A2 (Homo sapiens, UniProt P05177); format: in vitro ADME; details: human liver microsomes
Chain of CYP1A2 (Homo sapiens, UniProt P05177) (P05177 whole entry): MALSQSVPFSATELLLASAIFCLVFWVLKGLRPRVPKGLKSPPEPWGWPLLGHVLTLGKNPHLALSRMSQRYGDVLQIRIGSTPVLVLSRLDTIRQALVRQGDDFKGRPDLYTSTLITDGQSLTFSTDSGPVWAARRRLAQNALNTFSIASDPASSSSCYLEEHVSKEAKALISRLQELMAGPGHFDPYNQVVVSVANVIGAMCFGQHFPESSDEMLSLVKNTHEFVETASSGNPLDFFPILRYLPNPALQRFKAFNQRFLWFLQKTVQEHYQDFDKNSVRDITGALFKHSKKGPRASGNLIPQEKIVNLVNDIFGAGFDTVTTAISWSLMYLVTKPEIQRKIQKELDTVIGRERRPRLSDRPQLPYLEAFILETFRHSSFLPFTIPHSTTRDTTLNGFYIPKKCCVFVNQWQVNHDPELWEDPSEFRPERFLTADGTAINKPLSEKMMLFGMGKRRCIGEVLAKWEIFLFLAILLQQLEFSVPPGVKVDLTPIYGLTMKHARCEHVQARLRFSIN

[5] = target: T2, CYP2A6 (Homo sapiens, UniProt P11509); assay: CYP inhibition in human liver microsomes; format: in vitro ADME
T2 construct: In vitro studies in human liver microsomes; from tissue; host or cells: human liver microsomes
T2 sequence (P11509 whole entry): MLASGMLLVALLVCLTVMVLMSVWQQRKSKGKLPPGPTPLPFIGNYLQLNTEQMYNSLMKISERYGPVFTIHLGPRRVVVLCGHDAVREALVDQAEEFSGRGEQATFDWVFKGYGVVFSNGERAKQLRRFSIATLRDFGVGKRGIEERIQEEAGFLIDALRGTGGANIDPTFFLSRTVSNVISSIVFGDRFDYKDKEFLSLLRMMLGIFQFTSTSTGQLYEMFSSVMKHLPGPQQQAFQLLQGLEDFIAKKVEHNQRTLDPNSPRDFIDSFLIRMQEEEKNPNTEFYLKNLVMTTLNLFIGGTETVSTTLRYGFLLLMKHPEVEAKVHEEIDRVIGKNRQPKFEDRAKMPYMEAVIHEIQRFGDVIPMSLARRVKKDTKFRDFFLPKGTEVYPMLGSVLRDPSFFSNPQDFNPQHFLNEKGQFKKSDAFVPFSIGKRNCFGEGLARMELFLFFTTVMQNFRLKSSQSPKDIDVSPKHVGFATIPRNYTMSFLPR

[6] = target: T3, CYP2B6 (Homo sapiens, UniProt P20813); assay: CYP inhibition in human liver microsomes; format: in vitro ADME
T3 construct: In vitro studies in human liver microsomes; from tissue; host or cells: human liver microsomes
T3 sequence (P20813 whole entry): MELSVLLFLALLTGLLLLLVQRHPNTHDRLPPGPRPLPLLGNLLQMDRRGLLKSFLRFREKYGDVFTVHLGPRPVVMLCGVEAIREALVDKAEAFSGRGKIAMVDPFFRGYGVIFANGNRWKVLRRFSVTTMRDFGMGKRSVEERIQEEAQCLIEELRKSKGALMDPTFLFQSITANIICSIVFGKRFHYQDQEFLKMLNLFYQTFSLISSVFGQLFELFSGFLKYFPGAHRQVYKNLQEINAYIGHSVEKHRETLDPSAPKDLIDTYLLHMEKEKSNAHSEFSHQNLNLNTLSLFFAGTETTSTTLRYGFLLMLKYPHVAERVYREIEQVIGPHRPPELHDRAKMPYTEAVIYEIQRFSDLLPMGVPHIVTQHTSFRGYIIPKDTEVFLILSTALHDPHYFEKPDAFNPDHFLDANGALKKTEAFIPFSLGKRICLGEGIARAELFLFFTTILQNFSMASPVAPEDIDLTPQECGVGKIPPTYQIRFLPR

[7] = target: T4, CYP2C8 (Homo sapiens, UniProt P10632); assay: CYP inhibition in human liver microsomes; format: in vitro ADME
T4 construct: In vitro studies in human liver microsomes; from tissue; host or cells: human liver microsomes
T4 sequence (P10632 whole entry): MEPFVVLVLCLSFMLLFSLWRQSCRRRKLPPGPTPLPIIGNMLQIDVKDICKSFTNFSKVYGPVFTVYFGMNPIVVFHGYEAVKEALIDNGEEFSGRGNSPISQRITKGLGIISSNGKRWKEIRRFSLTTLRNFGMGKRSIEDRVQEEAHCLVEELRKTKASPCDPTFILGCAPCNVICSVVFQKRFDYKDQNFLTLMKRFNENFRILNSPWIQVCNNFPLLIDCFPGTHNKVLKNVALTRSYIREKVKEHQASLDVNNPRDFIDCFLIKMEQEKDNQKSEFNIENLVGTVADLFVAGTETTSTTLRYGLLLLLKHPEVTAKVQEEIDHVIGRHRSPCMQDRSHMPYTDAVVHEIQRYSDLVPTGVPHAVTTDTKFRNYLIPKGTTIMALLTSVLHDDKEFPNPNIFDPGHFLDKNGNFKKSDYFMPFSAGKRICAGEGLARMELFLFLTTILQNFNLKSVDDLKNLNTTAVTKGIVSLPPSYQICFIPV

[8] = target: T5, CYP2C9 (Homo sapiens, UniProt P11712); assay: CYP inhibition in human liver microsomes; format: in vitro ADME
T5 construct: In vitro studies in human liver microsomes; from tissue; host or cells: human liver microsomes
T5 sequence (P11712 whole entry): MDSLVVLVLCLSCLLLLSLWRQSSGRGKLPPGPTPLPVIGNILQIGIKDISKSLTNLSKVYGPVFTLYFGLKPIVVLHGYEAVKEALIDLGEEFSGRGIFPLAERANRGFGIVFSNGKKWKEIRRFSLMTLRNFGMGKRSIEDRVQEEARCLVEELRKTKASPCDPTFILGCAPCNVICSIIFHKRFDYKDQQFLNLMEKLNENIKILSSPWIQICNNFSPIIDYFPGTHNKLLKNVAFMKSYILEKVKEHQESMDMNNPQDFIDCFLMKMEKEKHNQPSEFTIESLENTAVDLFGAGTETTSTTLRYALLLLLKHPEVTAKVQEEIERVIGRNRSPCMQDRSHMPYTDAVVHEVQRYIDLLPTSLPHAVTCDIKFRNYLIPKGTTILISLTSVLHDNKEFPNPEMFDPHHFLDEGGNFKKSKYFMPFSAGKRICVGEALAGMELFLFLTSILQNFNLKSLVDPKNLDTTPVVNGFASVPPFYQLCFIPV

[9] = target: T6, CYP2C19 (Homo sapiens, UniProt P33261); assay: CYP inhibition in human liver microsomes; format: in vitro ADME
T6 construct: In vitro studies in human liver microsomes; from tissue; host or cells: human liver microsomes
T6 sequence (P33261 whole entry): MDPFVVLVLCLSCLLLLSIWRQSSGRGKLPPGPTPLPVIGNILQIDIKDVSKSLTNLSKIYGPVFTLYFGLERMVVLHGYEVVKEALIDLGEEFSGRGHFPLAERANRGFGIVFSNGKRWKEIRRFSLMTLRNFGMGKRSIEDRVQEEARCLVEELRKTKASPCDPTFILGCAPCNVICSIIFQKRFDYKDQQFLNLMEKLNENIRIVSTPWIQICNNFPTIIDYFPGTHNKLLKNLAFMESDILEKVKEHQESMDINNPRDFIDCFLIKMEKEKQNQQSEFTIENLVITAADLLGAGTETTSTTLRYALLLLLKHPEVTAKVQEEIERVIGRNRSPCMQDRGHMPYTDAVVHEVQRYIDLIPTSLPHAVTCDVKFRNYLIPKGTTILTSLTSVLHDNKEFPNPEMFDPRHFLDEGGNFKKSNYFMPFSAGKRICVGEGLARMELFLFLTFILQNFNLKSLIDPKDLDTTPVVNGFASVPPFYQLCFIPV

[10] = target: T7, CYP2D6 (Homo sapiens, UniProt P10635); assay: CYP inhibition in human liver microsomes; format: in vitro ADME
T7 construct: In vitro studies in human liver microsomes; from tissue; host or cells: human liver microsomes
T7 sequence (P10635 whole entry): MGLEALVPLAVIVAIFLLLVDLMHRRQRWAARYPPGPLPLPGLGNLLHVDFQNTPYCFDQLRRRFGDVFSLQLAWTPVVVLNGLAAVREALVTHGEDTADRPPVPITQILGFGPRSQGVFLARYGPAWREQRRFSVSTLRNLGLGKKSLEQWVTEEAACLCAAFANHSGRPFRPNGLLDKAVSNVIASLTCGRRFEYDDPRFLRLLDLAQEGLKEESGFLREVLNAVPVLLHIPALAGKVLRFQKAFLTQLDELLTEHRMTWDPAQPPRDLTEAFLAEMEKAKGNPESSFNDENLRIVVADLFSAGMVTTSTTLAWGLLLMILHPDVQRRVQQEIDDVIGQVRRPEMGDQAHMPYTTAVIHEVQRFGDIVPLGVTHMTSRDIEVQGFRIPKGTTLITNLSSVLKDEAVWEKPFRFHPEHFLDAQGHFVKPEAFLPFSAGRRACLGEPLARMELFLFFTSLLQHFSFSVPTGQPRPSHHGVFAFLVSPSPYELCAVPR

[11] = target: T8, CYP2E1 (Homo sapiens, UniProt P05181); assay: CYP inhibition in human liver microsomes; format: in vitro ADME
T8 construct: In vitro studies in human liver microsomes; from tissue; host or cells: human liver microsomes
T8 sequence (P05181 whole entry): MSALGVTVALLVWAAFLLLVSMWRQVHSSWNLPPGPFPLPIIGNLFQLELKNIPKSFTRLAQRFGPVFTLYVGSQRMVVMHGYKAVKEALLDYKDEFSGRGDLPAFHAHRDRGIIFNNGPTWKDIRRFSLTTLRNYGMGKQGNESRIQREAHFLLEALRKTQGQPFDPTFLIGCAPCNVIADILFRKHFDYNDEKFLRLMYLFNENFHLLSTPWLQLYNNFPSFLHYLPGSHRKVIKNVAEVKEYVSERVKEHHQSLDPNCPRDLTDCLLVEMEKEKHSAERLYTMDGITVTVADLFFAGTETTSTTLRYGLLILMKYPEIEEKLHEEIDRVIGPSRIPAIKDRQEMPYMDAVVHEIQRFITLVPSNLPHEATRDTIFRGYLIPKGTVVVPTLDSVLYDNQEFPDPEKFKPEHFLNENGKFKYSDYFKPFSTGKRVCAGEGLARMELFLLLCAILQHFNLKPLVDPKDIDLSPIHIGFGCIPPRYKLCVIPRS

[12] = target: T9, CYP3A4 (Homo sapiens, UniProt P08684); assay: CYP inhibition in human liver microsomes; format: in vitro ADME
T9 construct: In vitro studies in human liver microsomes; from tissue; host or cells: human liver microsomes
T9 sequence (P08684 whole entry): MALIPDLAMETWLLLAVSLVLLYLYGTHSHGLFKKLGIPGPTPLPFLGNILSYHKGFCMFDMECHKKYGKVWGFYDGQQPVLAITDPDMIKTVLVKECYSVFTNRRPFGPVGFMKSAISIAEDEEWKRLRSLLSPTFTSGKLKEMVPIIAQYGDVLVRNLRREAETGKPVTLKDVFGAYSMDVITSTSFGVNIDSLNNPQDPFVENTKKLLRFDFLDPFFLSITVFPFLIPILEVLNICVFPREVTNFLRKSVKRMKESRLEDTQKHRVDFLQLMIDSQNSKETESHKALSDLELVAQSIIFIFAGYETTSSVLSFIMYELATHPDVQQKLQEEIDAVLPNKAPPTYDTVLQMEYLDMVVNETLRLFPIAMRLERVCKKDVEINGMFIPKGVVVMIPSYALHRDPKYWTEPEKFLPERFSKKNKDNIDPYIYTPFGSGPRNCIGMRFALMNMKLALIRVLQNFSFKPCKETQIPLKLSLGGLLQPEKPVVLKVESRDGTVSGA

[13] = system: CYP2B6; assay: CYP induction in human hepatocytes; format: in vitro ADME
[14] = system: CYP2C9; assay: CYP induction in human hepatocytes; format: in vitro ADME
[15] = system: CYP3A4/5; assay: CYP induction in human hepatocytes; format: in vitro ADME
[16] = system: complicated skin and skin structure infections (cSSSI); assay: Phase 3 cSSSI Study 2; format: in vivo, human; details: versus vancomycin/aztreonam
Experimental: A total of 1396 adults with clinically documented complicated skin and skin structure infections (cSSSI) were enrolled in two randomized, multi-center, multinational, double-blind, studies comparing 600 mg ceftaroline fosamil administered intravenously over 1 hour every 12 hours to vancomycin plus aztreonam [1 g vancomycin administered intravenously over 1 hour followed by 1 g aztreonam administered intravenously over 1 hour every 12 hours]. Patients with cSSSI (deep/extensive cellulitis, a major abscess, a wound infection [surgical or traumatic], infected insect bites, burns or ulcers, lower extremity infection in patients with diabetes mellitus or peripheral vascular disease), were enrolled in the studies. Treatment duration was 5 to 14 days. A switch to oral therapy was not allowed. The Modified Intent-to-Treat (MITT) population included all patients who received any amount of study drug according to their randomized treatment group.
The primary efficacy endpoint was clinical response at the Test of Cure (TOC) visit in the co-primary CE and MITT populations (Table 2). […] In a subgroup analysis (CE population), the comparative clinical cure rates between the ceftaroline group and the vancomycin plus aztreonam group were not affected by age, gender, race, ethnicity, or weight.

[17] = system: Community-Acquired Bacterial Pneumonia (CABP); assay: Two Phase 3 studies in CABP, integrated; format: in vivo, human; details: versus ceftriaxone, integrated CABP studies
Experimental: (§1) In both treatment groups of CABP Study 1, two doses of oral clarithromycin (500 mg q12h), were administered as adjunctive therapy starting on Study Day 1. No adjunctive macrolide therapy was used in CABP Study 2. Patients with new or progressive pulmonary infiltrate(s) on chest radiography and clinical signs and symptoms consistent with CABP with the need for hospitalization and IV therapy were enrolled in the studies. Treatment duration was 5 to 7 days. A switch to oral therapy was not allowed. The Modified Intent-to-Treat Efficacy (MITTE) population included all patients who received any amount of study drug according to their randomized treatment group and were in PORT (Pneumonia Outcomes Research Team) Risk Class III or IV.
The primary efficacy endpoint was the clinical response at the Test of Cure (TOC) visit in the co-primary CE and MITTE populations (Table 4). In a subgroup analysis (CE population), the comparative clinical cure rates between the ceftaroline group and the ceftriaxone group were not affected by age, gender, race, ethnicity, or weight.

[18] = system: Community-Acquired Bacterial Pneumonia (CABP); assay: Phase 3 CABP Study 1 (Example 5, adjunctive clarithromycin); format: in vivo, human; details: versus ceftriaxone, CABP Study 1
Experimental: as §1
(§2) The primary efficacy endpoint was the clinical response at the Test of Cure (TOC) visit in the co-primary CE and MITTE populations (Table 4).
The secondary objective of the study was to evaluate the following: the clinical response at end-of-therapy (EOT); the microbiological favorable outcome rate at TOC; the overall (clinical and radiographic) success rate at TOC; the clinical and microbiological response by pathogen at TOC; clinical relapse at late follow-up (LFU); microbiological reinfection/recurrence at LFU; and safety.
The primary efficacy outcome measures were the per-subject clinical cure rate at TOC in the CE and MITTE Populations. Subjects were considered clinically cured at TOC if they had total resolution of all signs and symptoms of the baseline infection, or improvement of the infection such that no further antimicrobial therapy was necessary.
(§3) Non-inferiority was concluded if the lower limit of the 95% CI was higher than −10%.

[19] = system: Community-Acquired Bacterial Pneumonia (CABP); assay: Phase 3 CABP Study 2 (Example 4, no adjunctive macrolide); format: in vivo, human; details: for Treatment Difference in clinical cure rate at TOC: versus ceftriaxone, CABP Study 2
Experimental: as §1, §2
The secondary objectives of the study were to evaluate the following: clinical response at end-of-therapy (EOT); the microbiological favorable outcome rate at TOC; the overall (clinical and radiographic) success rate at TOC; the clinical and microbiological response by pathogen at TOC; clinical relapse at late follow-up (LFU); microbiological reinfection/recurrence at LFU; and safety.
The following criteria were used for evaluation: The primary efficacy outcome measures were the per-subject clinical cure rate at test-of-cure (TOC) in the CE and MITTE Populations. Subjects were considered clinically cured at TOC if they had total resolution of all signs and symptoms of the baseline infection, or improvement of the infection such that no further antimicrobial therapy was necessary.
as §3

[20] = Safety, four pooled controlled comparative Phase 3 studies (two cSSSI, two CABP); format: in vivo, human; details: pooled Phase 3 studies
Experimental: Ceftaroline fosamil was evaluated in four controlled comparative Phase 3 clinical studies (two in cSSSI and two in CABP).

[21] = system: CYP1A2; details: human hepatocytes
[22] = system: CYP2C8; details: human hepatocytes
[23] = system: CYP2C19; details: human hepatocytes
[24] = system: Haemophilus parainfluenzae; details: ME patients with CABP
[25] = Example 4
Experimental: The 600-mg dose of ceftaroline fosamil infused over 60 minutes was split into two infusions in order to maintain the blind. For subjects with moderate renal impairment (30 ml/min<CrCl≦50 ml/min), as estimated by the Cockroft-Gault formula, unblinded pharmacy staff or unblinded study staff could adjust the dose of ceftaroline fosamil to two consecutive 200 mg infusions and readjust dose to two 300 mg infusions when renal function improved (CrCl>50 mL/min). The duration of treatment was between 5 to 7 days.
(§4) All subjects who received any amount of study drug were included in the safety analysis. Safety measures included monitoring for adverse events (AE) up to TOC and serious adverse events (SAE) through LFU; recording vital signs, physical examination, electrocardiogram (ECG), and clinical laboratory findings (clinical chemistry, hematology, and urinalysis), at prespecified times throughout the study.

[26] = Example 5
Experimental: The 600-mg dose of ceftaroline fosamil infused over 60 minutes was split into two infusions in order to maintain the blind. For subjects with moderate renal impairment (30 mL/min<CrCl≦50 mL/min), as estimated by the Cockroft-Gault formula, unblinded pharmacy staff or unblinded study staff could adjust the dose of ceftaroline fosamil to two consecutive 200 mg infusions and readjust dose to two 300 mg infusions when renal function improved (CrCl>50 mL/min). The duration of treatment was between 5 to 7 days.
as §4

[27] = Safety population, listed as ceftriaxone

## CCO/N=C(\C(=O)N[C@@H]1C(=O)N2C(C(=O)[O-])=C(Sc3nc(-c4cc[n+](C)cc4)cs3)CS[C@H]12)c1nsc(NP(=O)(O)O)n1 [Ceftaroline fosamil, (6R,7R)-7-{(2Z)-2-(ethoxyimino)-2-[5-(phosphonoamino)-1,2,4-thiadiazol-3-yl]acetamido}-3-{[4-(1-methylpyridin-1-ium-4-yl)-1,3-thiazol-2-yl]sulfanyl}-8-oxo-5-thia-1-azabicyclo[4.2.0]oct-2-ene-2-carboxylate]
[1]
  solubility: more than 200 mg per ml
[2]
  conversion of prodrug in plasma: rapidly converted into bioactive ceftaroline in plasma
[3]
  inhibition of CYP1A1: neither ceftaroline fosamil nor ceftaroline inhibits
[4]
  inhibition of CYP1A2: neither ceftaroline fosamil nor ceftaroline inhibits
[5]
  inhibition of CYP2A6: neither ceftaroline fosamil nor ceftaroline inhibits
[6]
  inhibition of CYP2B6: neither ceftaroline fosamil nor ceftaroline inhibits
[7]
  inhibition of CYP2C8: neither ceftaroline fosamil nor ceftaroline inhibits
[8]
  inhibition of CYP2C9: neither ceftaroline fosamil nor ceftaroline inhibits
[9]
  inhibition of CYP2C19: neither ceftaroline fosamil nor ceftaroline inhibits
[10]
  inhibition of CYP2D6: neither ceftaroline fosamil nor ceftaroline inhibits
[11]
  inhibition of CYP2E1: neither ceftaroline fosamil nor ceftaroline inhibits
[12]
  inhibition of CYP3A4: neither ceftaroline fosamil nor ceftaroline inhibits
[13]
  induction of CYP2B6: not inducers
[14]
  induction of CYP2C9: not inducers
[15]
  induction of CYP3A4/5: not inducers
[16]; CE
  Treatment Difference (2-sided 95% CI): 0.1 (−4.4., 4.5)
[16]; MITT
  Treatment Difference (2-sided 95% CI): −0.4 (−5.8, 5.0)
[17]; CE
  Treatment Difference in clinical cure rate at TOC: 6.7 (1.6, 11.8) %
[17]; MITTE
  Treatment Difference in clinical cure rate at TOC: 6.0 (1.4, 10.7) %
[18]; CE
  Treatment Difference in clinical cure rate at TOC: 8.4 (1.4, 15.4) %
[18]; MITTE
  Treatment Difference in clinical cure rate at TOC: 6.2 (−0.2, 12.6) %
[19]; CE
  Treatment Difference in clinical cure rate at TOC: 4.9 (−2.5, 12.5) %
[19]; MITTE
  Treatment Difference in clinical cure rate at TOC: 5.9 (−1.0, 12.7) %
[20]
  highest incidence of any adverse reaction: ≤ 5%
  hypersensitivity leading to discontinuation: 0.3%
[21]
  induction of CYP1A2: not inducers
[22]
  induction of CYP2C8: not inducers
[23]
  induction of CYP2C19: not inducers
[24]
  Clinical Cure Rate by Infecting Pathogen: 16/16 (100%)

## CO/N=C(\C(=O)N[C@@H]1C(=O)N2C(C(=O)O)=C(CSc3nc(=O)c(=O)[nH]n3C)CS[C@H]12)c1csc(N)n1 [Ceftriaxone, reference compound]
[19]; MITTE population, Example 4
  Per-subject Clinical Cure Rate at the EOT Visit: 215 (78.8) %
[19]; mMITTE population, Example 4
  Favorable Microbiological Outcome at the TOC Visit: 72 (81.8) %
[24]
  Clinical Cure Rate by Infecting Pathogen: 15/17 (88.2%)
[25]
  TEAEs leading to premature discontinuation from study drug administration: 1.3%
  any study-drug-related TEAEs, subjects: 13.7%
  study-drug-related TEAE: headache: 1.0%
[25]; MITTE population
  Early withdrawal from study, reason Adverse Event: 7 (2.6) %
[25]; Safety population
  Any AE (TEAE), subjects: 145 (47.2) %
  COPD, subjects: 5 (1.6) %
  Diarrhea, subjects: 9 (2.9) %
  Headache, subjects: 5 (1.6) %
  Hypertension, subjects: 8 (2.6) %
  Hypokalemia, subjects: 5 (1.6) %
  Insomnia, subjects: 8 (2.6) %
  Nausea, subjects: 6 (2.0) %
  Phlebitis, subjects: 8 (2.6) %
  Pleural effusion, subjects: 7 (2.3) %
  Pneumonia, subjects: 4 (1.3) %
[25]; [27]
  Any AE (TEAE), subjects: 47.2%
[26]
  TEAEs leading to premature discontinuation from study drug administration: 3.9%
  subjects with SAEs considered possibly or probably related to study drug: 5 subjects
[26]; MITTE population
  Early withdrawal from study, reason Adverse Event: 7 (2.3) %
[26]; Safety population
  Any AE (TEAE), subjects: 136 (44.2) %
  Constipation, subjects: 5 (1.6) %
  Diarrhea, subjects: 7 (2.3) %
  Headache, subjects: 4 (1.3) %
  Hypertension, subjects: 8 (2.6) %
  Hypokalemia, subjects: 10 (3.2) %
  Insomnia, subjects: 6 (1.9) %
  Nausea, subjects: 8 (2.6) %
  Phlebitis, subjects: 5 (1.6) %
[26]; [27]
  Any AE (TEAE), subjects: 44.2%
  Diarrhea, subjects: 2.3%
  Headache, subjects: 1.3%

## CCO/N=C(\C(=O)N[C@H](C(=O)[O-])[C@@H]1NC(C(=O)[O-])=C(Sc2nc(-c3cc[n+](C)cc3)cs2)CS1)c1nsc(N)n1.[H+] [ceftaroline M-1]
[13]
  induction of CYP2B6: not inducers
[14]
  induction of CYP2C9: not inducers
[15]
  induction of CYP3A4/5: not inducers
[21]
  induction of CYP1A2: not inducers
[22]
  induction of CYP2C8: not inducers
[23]
  induction of CYP2C19: not inducers
